Data reported in patent US9144633B2, “Implantable devices coated with insulin-mimetic vanadium compounds and methods thereof” (RUTGERS, THE STATE UNIVERSITY OF NEW JERSEY, priority 2010, dated 2015).
Where two headings read alike, the source gives them in different places.

What was measured:
bone fracture = assay: Local VAC application without a carrier, fracture healing (preliminary data); type: in vivo; details: at the dosages tested
Source text: This evidence opens up many future applications to the use of VAC alone, or incorporated with a carrier as an option for fracture healing.

bone homeostasis = details: cited from earlier work
[1] = cited from earlier work
kidney and liver = details: VAC treatment; cited from earlier work

CC(=O)/C=C(/C)[O-].CC(=O)/C=C(/C)[O-].[O]=[V+2] [VAC, vanadyl acetylacetonate]
speed of bone healing versus saline controls (bone fracture): more than twice as rapidly as saline controls | effect on bone parameters (bone homeostasis; diabetic rats): improved the ultimate strength, Tb,Th, MAR, and plasma osteocalcin | effect on bone parameters (bone homeostasis; normal rats): did not affect any bone parameters | tolerance / signs of toxicity ([1]; after several days): no signs of toxicity | tissue distribution / accumulation ([1]; widely distributed to all tissues): greatest accumulation was within femur tissue | function or structure of kidney and liver (kidney and liver): does not impair the function or structure of kidney and liver
